Laboratory results published in publication PMC3716717, “The molecular basis for recognition of bacterial ligands at equine TLR2, TLR1 and TLR6” (Veterinary Research, 2013).
Peptide text beside a SMILES is read from it. * marks the point of attachment. X1 = CCCCCCCCCCCCCCCC(=O)OCC(C*)OC(=O)CCCCCCCCCCCCCCC; Palmitoyl = CCCCCCCCCCCCCCCC(=O)*

How the values were obtained:
Assay type in all cases: cell-based
human TLR2/1 = target: T1, human TLR2/1 (Homo sapiens, UniProt O60603+Q15399); assay: NF-κB dual luciferase reporter assay in SW620 cells transfected with human TLR2+TLR1+CD14; conditions: human TLR2+TLR1+CD14, 6 h stimulation, normalised curves
T1 construct: FLAG (from vector pFLAG-CMV); expressed in transfected cells; host or cells: SW620 (human)
T1 sequence (O60603 21-784): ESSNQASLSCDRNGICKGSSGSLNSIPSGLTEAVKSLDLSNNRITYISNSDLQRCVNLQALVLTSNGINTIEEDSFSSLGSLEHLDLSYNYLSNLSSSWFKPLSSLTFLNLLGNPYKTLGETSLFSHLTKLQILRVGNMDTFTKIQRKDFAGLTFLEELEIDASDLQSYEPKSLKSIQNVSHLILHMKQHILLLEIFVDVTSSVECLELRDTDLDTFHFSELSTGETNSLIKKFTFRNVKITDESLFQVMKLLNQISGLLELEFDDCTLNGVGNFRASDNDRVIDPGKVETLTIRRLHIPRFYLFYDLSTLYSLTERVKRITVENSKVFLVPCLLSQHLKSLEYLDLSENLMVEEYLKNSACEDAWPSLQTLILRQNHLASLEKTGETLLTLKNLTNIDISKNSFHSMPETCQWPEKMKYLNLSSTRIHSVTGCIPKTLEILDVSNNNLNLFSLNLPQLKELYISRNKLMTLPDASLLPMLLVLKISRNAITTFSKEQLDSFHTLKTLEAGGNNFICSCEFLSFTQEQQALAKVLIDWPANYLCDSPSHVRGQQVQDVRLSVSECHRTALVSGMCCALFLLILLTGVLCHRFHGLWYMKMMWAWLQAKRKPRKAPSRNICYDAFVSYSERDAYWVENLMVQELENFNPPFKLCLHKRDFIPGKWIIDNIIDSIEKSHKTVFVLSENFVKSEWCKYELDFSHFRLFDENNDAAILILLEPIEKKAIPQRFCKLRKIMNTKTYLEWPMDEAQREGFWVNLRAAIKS
T1 sequence (Q15399 25-786): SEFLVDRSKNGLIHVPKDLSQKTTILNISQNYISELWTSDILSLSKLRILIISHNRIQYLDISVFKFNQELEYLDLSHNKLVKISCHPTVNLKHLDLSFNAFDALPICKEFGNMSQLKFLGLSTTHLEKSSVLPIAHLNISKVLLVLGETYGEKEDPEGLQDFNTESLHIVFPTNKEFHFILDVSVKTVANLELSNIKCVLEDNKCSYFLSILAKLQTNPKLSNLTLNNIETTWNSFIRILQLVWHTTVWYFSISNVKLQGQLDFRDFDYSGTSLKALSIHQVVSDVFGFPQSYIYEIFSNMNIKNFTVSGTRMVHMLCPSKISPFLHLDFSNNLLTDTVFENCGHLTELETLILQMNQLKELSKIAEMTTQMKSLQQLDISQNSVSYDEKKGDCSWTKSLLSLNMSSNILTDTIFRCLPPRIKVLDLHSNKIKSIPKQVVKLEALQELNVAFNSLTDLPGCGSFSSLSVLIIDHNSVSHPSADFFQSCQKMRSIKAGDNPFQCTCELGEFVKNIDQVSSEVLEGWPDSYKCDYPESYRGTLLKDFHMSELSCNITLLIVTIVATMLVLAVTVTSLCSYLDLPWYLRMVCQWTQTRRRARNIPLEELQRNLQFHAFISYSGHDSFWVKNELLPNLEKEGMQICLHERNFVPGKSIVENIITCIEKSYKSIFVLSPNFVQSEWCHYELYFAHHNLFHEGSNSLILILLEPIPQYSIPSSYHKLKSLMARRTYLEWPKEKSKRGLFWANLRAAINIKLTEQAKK
Protocol: (§1) SW620 cells (a gift from Richard Tapping, USA) were utilised for TLR2/1 and TLR2/6 transient transfection experiments, as, unlike HEK293 cells, they are 1) deficient in significant expression of all three receptors, and 2) poorly responsive to Pam2CSK4 and Pam3CSK4 without exogenously added TLRs (Additional file 1). […] SW620 cells were seeded at 3.75 × 10^4 cells per well of a 48 well plate and transiently transfected 24 hours later using Fugene 6 (Promega) at a ratio of 1 μg DNA: 4 μL Fugene 6. For transfection, expression vectors containing cDNA encoding human (in pFLAG-CMV) or equine (in pcDNA3) TLR2, -1 and -6, and CD14 (in pcDNA3), were mixed as appropriate. TLR cDNA-containing vectors were used at 2.5 ng/well; CD14 cDNA-containing vectors were used at 1.25 ng/well. […] Cells were stimulated for six hours, lysed using diluted passive lysis buffer (PLB; Promega), and NF-κB activation measured by the dual luciferase reporter assay (Promega). […]
(§2) SW620 cells were transiently transfected with reporter constructs and one of four receptor combinations: human TLR2+TLR1+CD14, human TLR2+TLR6+CD14, equine TLR2+TLR1+CD14 or equine TLR2+TLR6+CD14, and stimulated with increasing doses of ligand. EC50 and maximum stimulation values were determined at each heterodimer as measures of ligand potency and efficacy respectively.

human TLR2 [1] = target: T2, human TLR2 (Homo sapiens, UniProt O60603); assay: NF-κB reporter assay in SW620 cells transfected with human TLR2 only (+CD14); set-up: FLAG (from vector pFLAG-CMV); expressed in transfected cells; host or cells: SW620 (human); conditions: 20 ng/mL ligand
T2 sequence (O60603 21-784): as the sequence (O60603 21-784) above
Protocol: (§3) SW620 cells (a gift from Richard Tapping, USA) were utilised for TLR2/1 and TLR2/6 transient transfection experiments, as, unlike HEK293 cells, they are 1) deficient in significant expression of all three receptors, and 2) poorly responsive to Pam2CSK4 and Pam3CSK4 without exogenously added TLRs (Additional file 1). […] SW620 cells were seeded at 3.75 × 10^4 cells per well of a 48 well plate and transiently transfected 24 hours later using Fugene 6 (Promega) at a ratio of 1 μg DNA: 4 μL Fugene 6. For transfection, expression vectors containing cDNA encoding human (in pFLAG-CMV) or equine (in pcDNA3) TLR2, -1 and -6, and CD14 (in pcDNA3), were mixed as appropriate. TLR cDNA-containing vectors were used at 2.5 ng/well; CD14 cDNA-containing vectors were used at 1.25 ng/well. TLR constructs were replaced with empty vector (pcDNA3), as appropriate, to balance total added DNA amounts. […] Cells were stimulated for six hours, lysed using diluted passive lysis buffer (PLB; Promega), and NF-κB activation measured by the dual luciferase reporter assay (Promega).
(§4) Supplementary file 1297-9716-44-50-S1.pdf: Additional file 1 Expression of TLRs and responses to synthetic ligands of SW620 and HEK293 cells. […] (A) After 25 PCR cycles, TLR4 was detected in SW620, and TLR1 was detected in HEK293. […]

human TLR2/6 = target: T3, human TLR2/6 (Homo sapiens, UniProt O60603+Q9Y2C9); assay: NF-κB dual luciferase reporter assay in SW620 cells transfected with human TLR2+TLR6+CD14
T3 construct: FLAG (from vector pFLAG-CMV); expressed in transfected cells; host or cells: SW620 (human)
T3 sequence (O60603 21-784): as above
T3 sequence (Q9Y2C9 32-796): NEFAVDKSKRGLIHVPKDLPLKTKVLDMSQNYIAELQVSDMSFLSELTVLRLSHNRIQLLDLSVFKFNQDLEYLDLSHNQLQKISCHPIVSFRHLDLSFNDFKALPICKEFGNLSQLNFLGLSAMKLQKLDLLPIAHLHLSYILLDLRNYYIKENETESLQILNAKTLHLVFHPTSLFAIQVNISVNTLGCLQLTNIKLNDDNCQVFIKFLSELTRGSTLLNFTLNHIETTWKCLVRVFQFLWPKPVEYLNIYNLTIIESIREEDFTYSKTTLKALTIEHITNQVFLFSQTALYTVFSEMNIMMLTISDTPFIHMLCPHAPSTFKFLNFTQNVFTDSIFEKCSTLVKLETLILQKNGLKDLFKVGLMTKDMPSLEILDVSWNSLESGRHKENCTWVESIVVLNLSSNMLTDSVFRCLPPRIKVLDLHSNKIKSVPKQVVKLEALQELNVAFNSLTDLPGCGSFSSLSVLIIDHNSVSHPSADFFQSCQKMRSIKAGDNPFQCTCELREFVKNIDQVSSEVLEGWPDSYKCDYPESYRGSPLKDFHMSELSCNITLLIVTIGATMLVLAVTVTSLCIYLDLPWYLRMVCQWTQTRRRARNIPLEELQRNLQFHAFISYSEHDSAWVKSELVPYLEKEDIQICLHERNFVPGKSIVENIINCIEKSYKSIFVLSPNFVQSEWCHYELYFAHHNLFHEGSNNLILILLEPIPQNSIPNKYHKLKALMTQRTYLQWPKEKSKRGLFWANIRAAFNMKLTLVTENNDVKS
Protocol: as §1, §2

human TLR2 [2] = target: T2, human TLR2; assay: NF-κB reporter assay in HEK293 cells transfected with human TLR2 only (+CD14); conditions: 20 ng/mL ligand, human TLR2 + human CD14, endogenous TLR1/6
Protocol: HEK293 cells were seeded at a density of 3 × 10^4 cells per well of a 96 well plate and transiently transfected 48 h later using JetPEI (Polyplus). For transfection, expression vectors containing cDNA encoding human TLR2, -1 and -6, and CD14, were mixed as appropriate. TLR cDNA-containing and CD14 cDNA-containing vectors were used at 1 ng/well. TLR constructs were replaced as appropriate with empty vector (pcDNA3) to balance the total added DNA amounts. pNF-κB-luc (10 ng/well) and ph-RG-TK (5 ng/well) were added to receptor mixtures, together with 10× TE and 150 mM NaCl to give a total volume of 50 μL per 10 wells. Following mixing of DNA, and per 10 wells, 2 μL JetPEI was added to 48 μL 150 mM NaCl. JetPEI/NaCl was added to the DNA mixtures at a 1:1 ratio and incubated for 30 min at room temperature. Following incubation, transfection mixtures were diluted to 1 mL per 10 wells in complete HEK medium. Old medium was removed from plated cells and replaced with the transfection/complete medium mixtures. […] Cells were stimulated for six hours, lysed using diluted PLB, and NF-κB activation measured by the dual luciferase reporter assay (Promega).
as §4

equine TLR2/6 = assay: NF-κB dual luciferase reporter assay in SW620 cells transfected with equine TLR2+TLR6+CD14
Protocol: as §1, §2

equine TLR2/1 = assay: NF-κB dual luciferase reporter assay in SW620 cells transfected with equine TLR2+TLR1+CD14; conditions: for EC50: SW620 cells, equine TLR2+TLR1+CD14, 6 h stimulation, NF-κB luciferase, normalised curves
Protocol: as §3, with “amounts. Reporter constructs pNF-κB-luc (Clontech; 25 ng/well) and ph-RG-TK (Promega; 12.5 ng/well), encoding firefly luciferase under an NF-κB promoter and constitutively expressed Renilla luciferase respectively, were then added to all receptor mixtures, together with 10× Tris-EDTA (TE). Following mixing of DNA, and per 4 wells, 0.7 μL Fugene 6 was diluted to 10 μL in serum- and antibiotic-free RPMI and incubated for 5 min. DNA mixtures were then added to the Fugene 6/RPMI mixtures and incubated for 30 min at room temperature. Following incubation, transfection mixtures were diluted to 1 mL per 4 wells in complete SW620 medium.” for “amounts.”, “(Promega). […]” for “(Promega).”
as §2

| Compound | EC50 (human TLR2/1) [nM] | NF-κB response of SW620 with exogenous TLR2 only (human TLR2 [1]) | EC50 (human TLR2/6; human TLR2+TLR6+CD14, 6 h stimulation, NF-κB luciferase, normalised curves) [nM] | NF-κB response of HEK293 with exogenous TLR2 only (human TLR2 [2]) | EC50 (equine TLR2/6; equine TLR2+TLR6+CD14, 6 h stimulation, NF-κB luciferase, normalised curves) [ng/mL] | EC50 (equine TLR2/1) [ng/mL] | potency at equine TLR2/1 relative to human TLR2/1 (equine TLR2/1; more potent at equine TLR2/1 than at human TLR2/1) [fold] | stimulation of human TLR2/6 (human TLR2/6; data not shown) | stimulation of equine TLR2/6 (equine TLR2/6; data not shown) |
| --- | --- | --- | --- | --- | --- | --- | --- | --- | --- |
| CCCCCCCCCCCCCCCC(=O)OCC(CSC[C@H](N)C(=O)N[C@@H](CO)C(=O)N[C@@H](CCCCN)C(=O)N[C@@H](CCCCN)C(=O)N[C@@H](CCCCN)C(=O)N[C@@H](CCCCN)C(=O)O)OC(=O)CCCCCCCCCCCCCCC (stereo partly shown) [Pam2CSK4] (H-C(X1)SKKKK-OH; N-terminus and C-terminus assumed) | 3.31 | respond weakly | 0.0118 | respond to both ligands | 0.010 | 0.43 | 10 |  |  |
| CCCCCCCCCCCCCCCC(=O)N[C@@H](CSCC(COC(=O)CCCCCCCCCCCCCCC)OC(=O)CCCCCCCCCCCCCCC)C(=O)N[C@@H](CO)C(=O)N[C@@H](CCCCN)C(=O)N[C@@H](CCCCN)C(=O)N[C@@H](CCCCN)C(=O)N[C@@H](CCCCN)C(=O)O (stereo partly shown) [Pam3CSK4] (Palmitoyl-C(X1)SKKKK-OH; C-terminus assumed) | 0.311 | not |  | respond to both ligands |  | 18.73 |  | failed to stimulate | failed to stimulate |
